Experimental data taken from US6878689B2, “Preventives or remedies for heart failure” (Kaken Pharmaceutical Co., Ltd., priority 2000, dated 2005).
Where a SMILES comes first, the peptide text is derived from it. [ ]: non-standard residue; d: D form. d2Nal = N[C@H](Cc1ccc2ccccc2c1)C(=O)O

Test system: anesthetized open-chest rabbits
Test: Effects of intravenously administered pralmorelin on cardiac function of anesthetized open-chest rabbit
Type: in vivo
Description: [Test Example 2] Effects of Intravenously Administered Pralmorelin on the Cardiac Function of Rabbit
The effects of pralmorelin on cardiac function were evaluated by measuring various parameters [blood pressure, heart rate, systolic left ventricular pressure (LVPsys), and maximal positive dP/dt (+dP/dtmax) obtained by differentiating the waveform of left ventricular pressure (LVP)]. The value of the maximal positive dP/dt for the left ventricular pressure (+dP/dtmax) is particularly important to determine if the cardiotonic action is sufficient to treat acute heart failure. • 1. Test Substance and Reagent • 1) Test Substance
Pralmorelin dihydrochloride (hereunder referred to as KP-102) (prepared by the method described in WO 9304081) was dissolved in distilled water for injection to prepare a 1.5 mg/mL solution. • 2) Control
Male NZW-strain rabbits (Kitayama Labes) weighing about 2 kg were used in the experiment. After arrival, the animals were allowed to eat a solid meal (Labo R Stock, Oriental Yeast Co., Ltd.) and drink water in a room at a temperature of 20±2° C. and at a humidity of 55±15% under 12-hr light/ dark cycles (from 7:00 to 19:00); the animals were kept under these conditions for at least 6 days before use. • 3. Test Method • 1) Measuring the Cardiac Function of Anesthetized Open-Chest Rabbit
Rabbits were anesthetized by administering 30 mg/kg of sodium pentobarbital into the auricular vein at a slow speed with attention to their breathing. The animals were then fixed in supine position and an endotracheal cannula was inserted. Under artificial respiration (tidal volume, 25 mL/breath; ventilation frequency, 45 breaths/min: SN-480-7 of Shinano Seisakusyo), the chest of each animal was opened by midline incision and the pericardium was incised to expose the heart. The left ventricular pressure (LVP) was measured with a pressure transducer (TP-300T, Nihon Kohden) and a pressure amplifier (AG-610G, Nihon Kohden) as a cannula with syringe was inserted from the cardiac apex into the left ventricle. The waveform of LVP was differentiated with a differentiator unit (ED-601, Nihon Kohden) to determine the maximal positive dP/dt(+dP/dtmax), which was used as an index for cardiac contractility. Blood pressure was measured with a pressure amplifier (AP-610G, Nihon Kohden) via a pressure transducer (TP-300T, Nihon Kohden) connected to a cannula inserted into the left femoral artery. Heart rate was measured with a cardiotachometer (AT-601G, Nihon Kohden) that was driven by counting the pulse waves of LVP. The parameters mentioned above were recorded on a recorder (TA-11, Gould). A cannula was inserted into the left femoral vein so as to assist in the administration of the test substance. The rectum temperature of each animal was controlled at 39° C. with a body temperature controller (TK-43, Asahi Denshi). The anesthetic was added as required but additional anesthetization should be avoided during the measurements. • 2) Groups
After each parameter stabilized, distilled water (0.2 mL/kg) was administered over one minute with an infusion pump (FP-W-100, Toyo Sangyo K.K.) and observations were made for 5 minutes after the administration to see whether the vehicle would have no effect. About 5 minutes after the administration of distilled water, the test substance was administered with an infusion pump in a volume of 0.2 mL/kg over one minute according to the grouping method specified above. Each hemodynamic parameter was measured both before administration and 1, 3, 5, 10, 15, 20 and 25 minutes after administration and the percent changes from the basal values were calculated. In some animals, measurement was conducted until 40 minutes after the administration of the test substance. • 4. Statistical Analysis
The results were each expressed by mean ± standard deviation. Any difference between groups was tested by repeated measures ANOVA (analysis of variance); The significance level was set at 5%. • 5. […]

[1] = 300 μg/kg i.v. over one minute, n=4, p<0.01 vs control

Compound: C[C@H](NC(=O)[C@@H](Cc1ccc2ccccc2c1)NC(=O)[C@@H](C)N)C(=O)N[C@@H](Cc1c[nH]c2ccccc12)C(=O)N[C@H](Cc1ccccc1)C(=O)N[C@@H](CCCCN)C(N)=O [KP-102, D-alanyl-3-(naphthalen-2-yl)-D-alanyl-L-alanyl-L-tryptophyl-D-phenylalanyl-L-lysinamide] (H-[dA][d2Nal]AW[dF]K-NH2)
- overall effect on heart rate (300 μg/kg i.v.): little affected
- time until blood pressure baseline value practically restored (300 μg/kg i.v.): ~25 min
- Maximum increase in +dP/dtmax, of the baseline value [1]: 22%
- Maximum increase in LVPsys, of the baseline value [1]: 13%
- drop in heart rate (300 μg/kg i.v., 3 minutes after the administration): 2%
- increase in heart rate (300 μg/kg i.v., 15 minutes after the administration): 1%
- increase in heart rate (300 μg/kg i.v., 25 minutes after the administration): 2%
- period of peak of cardiotonic action (300 μg/kg i.v., LVPsys and +dP/dtmax): 5 to 10 min
- time until baseline values of LVPsys and +dP/dtmax restored (300 μg/kg i.v., one case with extended monitoring): ≤ 40 min
- effect on mean blood pressure (300 μg/kg i.v., p<0.05 vs control): significant rise of blood pressure
